# Measured values reported in patent US20180008629A1, “Compositions and Methods for Treating NLRP3 Inflammasome-Related Diseases and Disorders” (priority 2015, published 2018).
# Assays:
# human monocytes = assay: Cytokine secretion from LPS stimulated human monocytes (ELISA); type: cell-based; conditions: LPS (1 μg/mL) 4 h, increasing concentrations of BHB
# Description: The cryopreserved peripheral blood monocuclear cells were used to sort CD14+ monocytes using isolation kit from Miltenyi (130-091-153). A total of 6 healthy subjects, ([…], […], person, person, […] and […]) were used for monocyte isolations. Monocytes were seeded in 6 well plates at concentration of 3 million/mL of RPMI1640 media with 10% FCS and antibiotic/antimycotic mixture and stimulated with LPS for 4 h. The supernatants were used to measure IL-1β, IL-18 and TNF using ELISA. Human peripheral blood was collected by the Health Apheresis Unit and the Clinical Core Laboratory, the National Institute on Aging-Intramural Research Program, under Human Subject Protocol #2003054 and Tissue Procurement Protocol #2003-071.
# NLRP3^L351P = NLRP3^L351P (Mus musculus, UniProt Q8R4B8, L351P); type: cell-based; set-up: endogenous in cells; Nlrp3 L351P Cre+ mice after tamoxifen in vivo (A14); conditions: constitutively active NLRP3 inflammasome, LPS
# [1] = system: neutrophil hyperactivation; assay: MSU peritonitis model in old mice fed ketogenic diet; type: in vivo, mouse; conditions: ketogenic diet one week prior to MSU challenge
# Description: Old mice were fed a ketogenic diet for one week prior to MSU challenge to induce neutrophil infiltration and inflammasome activation (FIG. 16A). Body weights and blood BHB concentrations were measured daily. Four hours after MSU injection, total peritoneal cells were collected and analyzed by FACS to enumerate total neutrophil infiltration (FIG. 16B). Gene expression within peritoneal cells was measured by RT-PCR (FIG. 16C). Expression was normalized to Gapdh expression and data are represented as expression relative to adults. Data are pooled from two independent experiments (FIGS. 16B and 16C). Statistical differences were calculated by 2-way ANOVA (FIG. 16A) or 1-way ANOVA (FIG. 16B). […]
# Mice were fed a ketogenic diet for 1 week prior to an increase in BHB levels and then infection or peritonitis was induced by injection of monosodium urate. Body weights and blood BHB concentrations were measured daily in old mice during ketogenic diet feeding, prior to MSU injection (FIG. 19A). […] The peritoneal cells were isolated and pro-inflammatory cytokine Il1b, Nlrp3 and Tnf gene expression was measured by RT-PCR (FIG. 19B). […] Blood BHB levels were measured in adult mice 24 hr post-infection with Staphylococcus aureus (FIG. 19C). Total cells collected from brocho-aleveolar lavage BAL fluid from lungs 24 hr post-infection were quantified (FIG. 19D). […]
# AIM2 inflammasome = AIM2 inflammasome (Mus musculus, UniProt Q91VJ1); type: cell-based
# [2] = due to increased clearance; literature; cited from earlier work
# [3] = Gout induced by intra-articular injection of MSU in rats fed ketogenic diet; type: in vivo, rat; conditions: ketogenic diet 1 week
# Description: Rats were fed a ketogenic diet for 1 week prior to the induction of gout by intra-articular injection of MSU. Blood BHB levels were measured in rats after 1 week ketogenic diet feeding, prior to injection with MSU (FIG. 21A). Knee thickness was measured daily (FIG. 21B). The increase in knee swelling relative to baseline thickness was measured 2 days after gout induction (FIG. 21C). Serum IL-1β was measured by ELISA on day 2 post-MSU injection (FIG. 21D).
# ASC = biological target: T1, ASC (Mus musculus, UniProt Q9EPB4); assay: ASC oligomerization and ASC speck formation in BMDMs; type: cell-based
# T1 construct: endogenous in cells; host or cells: mouse BMDMs primed with LPS and stimulated with ATP
# T1 sequence (Q9EPB4 1-193): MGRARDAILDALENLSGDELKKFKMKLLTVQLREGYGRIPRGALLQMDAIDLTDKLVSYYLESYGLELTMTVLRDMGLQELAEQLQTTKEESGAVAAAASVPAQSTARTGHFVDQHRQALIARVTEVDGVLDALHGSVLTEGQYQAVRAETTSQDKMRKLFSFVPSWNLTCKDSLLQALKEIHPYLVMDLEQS
# Description: The ASC oligomerization was performed using previously described methods (Yu et al., 2006, Cell. Death Differ. 13:236-249). BMDM were plated on chamber slides and allowed to attach overnight. The following day cells were primed with LPS and treated with ATP±BHB (10 mM) as described in the materials and methods. Cells were fixed with 4% paraformaldehyde followed by ASC (Enzo Lifesciences) and DAPI staining. ASC specks were quantified using ImageJ software. At least 5 distinct fields were analyzed and a minimum of 550 cells from each treatment condition were quantified. Data are shown as mean±SD and are representative of two independent experiments. Statistical differences were calculated by student's t-test.
# Sequence of NLRP3^L351P (Q8R4B8 whole entry L351P): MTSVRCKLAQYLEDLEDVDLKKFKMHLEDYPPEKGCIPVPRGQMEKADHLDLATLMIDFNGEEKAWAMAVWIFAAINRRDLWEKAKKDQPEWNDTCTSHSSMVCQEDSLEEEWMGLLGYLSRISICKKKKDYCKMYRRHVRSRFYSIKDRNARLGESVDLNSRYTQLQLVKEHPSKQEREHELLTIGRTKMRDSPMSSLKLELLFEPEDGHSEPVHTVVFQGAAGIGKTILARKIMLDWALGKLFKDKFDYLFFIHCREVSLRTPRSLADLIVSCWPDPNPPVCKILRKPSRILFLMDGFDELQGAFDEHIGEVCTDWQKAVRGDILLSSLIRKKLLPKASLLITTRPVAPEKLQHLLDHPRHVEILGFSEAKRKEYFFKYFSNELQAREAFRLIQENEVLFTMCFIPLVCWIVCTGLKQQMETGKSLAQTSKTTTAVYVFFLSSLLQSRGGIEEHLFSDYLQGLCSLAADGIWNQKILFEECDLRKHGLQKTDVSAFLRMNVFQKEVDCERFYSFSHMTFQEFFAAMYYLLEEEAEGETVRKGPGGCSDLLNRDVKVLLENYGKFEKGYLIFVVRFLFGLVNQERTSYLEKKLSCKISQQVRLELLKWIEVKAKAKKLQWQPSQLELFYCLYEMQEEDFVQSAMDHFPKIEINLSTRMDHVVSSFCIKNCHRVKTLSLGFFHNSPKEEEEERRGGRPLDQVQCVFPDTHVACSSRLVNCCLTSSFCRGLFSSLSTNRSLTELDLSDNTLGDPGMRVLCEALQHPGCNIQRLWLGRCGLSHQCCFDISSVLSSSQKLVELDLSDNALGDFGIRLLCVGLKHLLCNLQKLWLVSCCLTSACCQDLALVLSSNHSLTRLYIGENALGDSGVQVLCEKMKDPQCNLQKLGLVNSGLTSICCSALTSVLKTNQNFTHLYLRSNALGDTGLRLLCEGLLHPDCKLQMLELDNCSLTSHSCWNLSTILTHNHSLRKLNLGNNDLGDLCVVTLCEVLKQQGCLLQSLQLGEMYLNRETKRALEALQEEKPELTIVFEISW
# Sequence of AIM2 inflammasome (Q91VJ1 whole entry, looked up): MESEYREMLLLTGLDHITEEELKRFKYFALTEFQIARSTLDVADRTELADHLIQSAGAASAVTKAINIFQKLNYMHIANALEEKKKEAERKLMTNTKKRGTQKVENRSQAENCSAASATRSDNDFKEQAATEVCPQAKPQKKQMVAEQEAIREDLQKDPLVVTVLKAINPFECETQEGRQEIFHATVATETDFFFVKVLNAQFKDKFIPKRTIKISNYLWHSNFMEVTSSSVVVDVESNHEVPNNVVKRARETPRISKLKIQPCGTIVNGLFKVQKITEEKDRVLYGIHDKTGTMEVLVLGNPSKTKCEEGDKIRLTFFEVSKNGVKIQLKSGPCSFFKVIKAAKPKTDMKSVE
smiles,measurement,setting,value
"CC(O)CC(=O)O (stereo not drawn) [BHB, β-hydroxybutyrate]",IL-1β secretion,human monocytes,dose dependently inhibited
same,IL-18 secretion,human monocytes,dose dependently inhibited
same,TNFα production,human monocytes,without significantly affecting
same,ASC oligomerization in macrophages of FCAS mice,NLRP3^L351P,directly prevented
same,neutrophil hyperactivation in peritonitis,[1],prevented
same,AIM2 inflammasome induced IL-1β activation,AIM2 inflammasome,did not inhibit
same,serum concentration after administration,[2],insufficient to achieve sustained high serum concentration
same,Gout-induced inflammation,[3],protect
same,ASC oligomerization in response to NLRP3 ligand ATP,"ASC; BMDMs primed with LPS (4 h), ATP and BHB 1 h, DSS cross-linked ASC",prevented
same,ASC speck formation,"ASC; BMDMs, LPS+ATP, BHB (10 mM)",prevented
